Experimental data reported in US20200399238A1, “THERAPEUTIC AURONES” (MIDDLE TENNESSEE STATE UNIVERSITY, priority 2016, published 2020).
Like-named read-outs stand apart in the source and are kept apart here.

Legend:
[1] = system: C. glabrata (ATCC strain 66032); assay: Antifungal microdilution broth assay (PrestoBlue), C. glabrata; format: cell-based, Candida glabrata; conditions: Nakaseomyces glabratus, ATCC66032; Table 5
Description: Sigma-Aldrich) was used as the base medium for testing. […] solution of morpholinepropanesulfonic acid (MOPS; Sigma-Aldrich) was added to the RPMI to a final concentration of 0.165 M for buffering (RPMI-MOPS). This medium was adjusted to a pH of 7.0 with 10 M NaOH and filter sterilized. C. albicans (ATCC strain 90028), C. [NT] strain 66032), and C. tropicalis (ATCC strain 750) were cultured on potato dextrose agar (Sigma-Aldrich) plates, and incubated at 35° C. for 24 hours. For antifungal testing, overnight colonies were adjusted to 1.5×10^3 cells/mL, hereafter referred to as the test inoculum. […] Reduction of the compound from resazurin to resorufin is proportional to the number of metabolically active cells and can be quantified by measuring relative fluorescence units (RFUs). […] PrestoBlue was added to a final concentration of 10% in each well and fluorescence read at 560 nm excitation and 590 nm emission, per manufacturer instructions, using a SpectraMax M2e spectrophotometer (Molecular Devices, LLC, Sunnyvale, Calif.). […] The calculated Z', as described below, was compared to RFU readings and the optimal PrestoBlue incubation time was determined to be 75 minutes. IC50 determination was calculated using GraphPad Prism version 7.01 for Windows (GraphPad Software, Inc., La Jolla, Calif.) from the RFUs at dilution points. […]

[2] = system: Trypanosoma cruzi Tulahuen cells expressing beta-galactosidase; assay: T. cruzi intracellular assay (beta-galactosidase, L6 host cells); conditions: Trypanosoma cruzi, TULAHUEN, intracellular assay
[3] = system: C. albicans (ATCC strain 90028); assay: Antifungal microdilution broth assay (PrestoBlue), C. albicans; format: cell-based, Candida albicans; conditions: Candida albicans
Outline: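 Inoculum of 1.5×10^3 cells/mL in RPMI-MOPS (0.165 M MOPS, pH 7.0), exposed to aurones for 24 h at 35 °C. Growth read by PrestoBlue (10% final) fluorescence at ex 560/em 590 nm.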

[4] = system: p65-EGFP / TNFα promoter mCherry reporter; assay: Live cell imaging of RAW 264.7 dual reporter cells (p65-EGFP, TNFα promoter mCherry); format: cell-based, murine; conditions: 50 μM pre-treatment
Description: Cells were maintained at 37° C. with 5% CO2 in a humidified atmosphere during imaging. EGFP and mCherry fluorescence were imaged using FITC and Cy3 filters, respectively. Nikon Elements Software (Nikon. USA) was used for microscope control and image capture. Post-acquisition, images were analyzed using Fiji (Schindelin, Arganda-Carreras et al. 2012). Images were background subtracted and cytoplasmic:nuclear p65-EGFP and whole cell mCherry fluorescence were quantified for individual cells at each time point.

IKKβ, IκBα, p65 = assay: Western blot, IKK / IκBα / p65 phosphorylation, THP-1; conditions: 12.5, 25, 50 μM, LPS 15 min, dose-dependent
Description: (§1) U0126 is a compound that inhibits MEK1/2 and was used as positive control for ERK phosphorylation inhibition (Hotokezaka, Sakai et al. 2002). Cells were lysed with radio-immunoprecipitation assay (RIPA) lysis buffer that contained a protease and phosphatase inhibitor cocktail. Cell lysates were then tested for protein concentration using a BCA protein assay and diluted with RIPA lysis buffer to normalize protein concentration in all samples. Lysates were mixed with sample loading buffer containing bromophenol blue, glycerol, SDS, and 2-mercaptoethanol. The separated proteins were then transferred onto a nitrocellulose membrane and blocked with 5% BSA in IX Tris-buffered saline with 0.1% Tween-20 for 1 h. The blots were incubated with primary antibodies at 4° C. overnight followed by incubation with HRP-conjugated secondary antibodies for 2 h at 22° C. The membranes were developed by addition of ECL substrate and images were collected with a ChemiDoc XRS+ system chemiluminescence imager (Bio-Rad, Hercules, Calif., USA). Western blot band intensity was quantified using Image Lab software (Bio-Rad, Hercules, Calif., USA). […]

IL-1β = assay: Cytokine response by ELISA, IL-1β; format: cell-based, human; conditions: LPS-stimulated THP-1, ELISA
Description: Dexamethasone is a synthetic glucocorticoid that suppresses LPS-induced pro-inflammatory cytokine expression and was used as a control (Abraham, Lawrence et al. 2006). Supernatants were collected for human cytokine ELISAs and the manufacturer's protocol was followed to assess the cytokine response. Cells remaining after the supernatant collection were tested for relative viability by Alamar Blue cytotoxicity assay as previously described.

ERK, JNK, p38 = assay: Western blot, MAPK phosphorylation, RAW 264.7; conditions: RAW264.7; LPS 15 min
Description: as §1

SMILES	IC50 [1] [µM]	IC50 ([2]; read-out: IC50 T. cruzi, Table 1, mean of 2(+) trials (^c one trial)) [µM]	IC50 ([2]; read-out: IC50 T. cruzi, Table 2, mean of 2(+) independent trials) [µM]	IC50 ([3]; ATCC90028, Table 5, read-out: IC50 C. albicans) [µM]	IC50 ([3]; ATCC90028, across C. albicans, C. glabrata, and C. tropicalis, read-out: IC50 values against Candida species) [µM]	melting point [°C]	expression of mCherry (TNFα promoter reporter) [4]	nuclear translocation of p65-EGFP post-LPS [4]	phosphorylation of IKKβ, IκBα and p65 (IKKβ, IκBα, p65)	reduction of IL-1β expression (IL-1β) [%]	phosphorylation of ERK, JNK, or p38 (ERK, JNK, p38)
COc1ccc(/C=C2\Oc3c(ccc(O)c3O)C2=O)cc1O [Aurone 1009, (Z)-6,7-dihydroxy-2-(3-hydroxy-4-methoxybenzylidene)benzofuran-3(2H)-one]	11	> 50	> 50	16	10 to 18	275 to 280					
O=C1/C(=C/c2ccc(CO)o2)Oc2ccccc21 [aurone 1]							smaller fold-change in the expression of mCherry	diminished	suppress the phosphorylation of all three proteins	98	no statistically significant effect
